Assay results: patent US20250042894A1, “PROTEIN TYROSINE PHOSPHATASE INHIBITORS AND METHODS OF USE THEREOF” (Calico Life Sciences LLC, priority 2021, published 2025)
Read-outs that look alike come from different tables or passages of the source.

Columns and labels:
[1] = system: IFNγ-induced STAT1 phosphorylation (pSTAT1) in B16F10 cells; experiment: B16F10 Phospho-STAT1 HTRF proximal pharmacodynamic (PD) assay; assay type: cell-based, murine; details: for EC50: B16-F10; for Thiochromane x-fold>potency cellular: pSTAT1 EC50 of chromane comparator over thiochromane
Experimental: Example 45: B16F10 (Murine Melanoma Cells) Phospho-STAT1 HTRF Proximal Pharmacodynamic (PD) Assay
B16F10 cells were grown and maintained in high glucose DMEM (Gibco, Catalog #11965-092, Dun Laoghaire Co Dublin) supplemented with 10% fetal bovine serum (Gibco, Catalog #10082-139, Dun Laoghaire Co Dublin). The cells were pelleted and resuspended in high glucose DMEM without phenol red (Gibco, Catalog #11054-020, Dun Laoghaire Co Dublin), supplemented with 10% fetal bovine serum and plated in a 384 well Corning plate (product #3765, Corning, NY) at 11,000 cells per well in a volume of 20 μL. The cells were dosed with the compounds of interest using an Echo Liquid Handler (Beckman Coulter, Brea, CA) at 50 μM top dose with 3-fold dilutions down to 0.002679 μM for a 10-point dose response. The plate was incubated for 3 hours at 37° C. and subsequently treated with recombinant mouse IFNγ (R&D Systems, Catalog #485-MI, Minneapolis, MN; 100 nM final concentration) for 10 minutes at 37° C. to induce STAT1 phosphorylation followed by 3.3 μM staurosporine treatment for 1 hour at 37° C. to terminate phosphorylation. Media was then aspirated and 20 μL of 1× lysis buffer/blocking reagent (Cisbio Phospho-STAT1 kit, part #63ADK026PEH, Bedford, MA) was added. The plate was placed on a plate shaker for 30 minutes at room temperature, sealed, and stored at −80° C. until needed. To thaw, the plate was placed on shaker at room temperature until completely thawed while the antibody master mix was made (1:40 Phospho-STAT1 Eu Cryptate antibody, 1:40 Phospho-STAT1 d2 antibody, with the detection buffer; Cisbio Phospho-STAT1 kit, part #63ADK026PEH, Bedford, MA). The antibody master mix was then dispensed at 4 μL per well into a 384 ProxiPlate Plus (PerkinElmer, part #6008289, Waltham, MA) and 16 μL of lysate was added from the Corning plate to the Proxiplate using a VIAFLO 384 (INTEGRA). The plate was incubated for 3 hours at room temperature and read on an EnVision® (Perkin Elmer) plate reader with laser excitation at 335 nm and emission at 665 nm. Dotmatics Studies (Bishop's Stortford, UK) was utilized to generate all dose-response curves and calculate EC50s and are shown in Table 2.

[2] = molecular target: T1, His tagged PTPN2 (TC45) protein (Homo sapiens, UniProt P17706); experiment: Mobility Shift Assay (MSA) for PTPN2 inhibitors; assay type: biochemical; details: for Thiochromane x-fold>potency biochemical: Table 3, PTPN2 MSA IC50 of chromane comparator over thiochromane; for IC50: enzyme 0.5 nM, substrate 2 μM, 10 minutes preincubation at room temperature
T1 construct: His; made in house
T1 sequence (P17706 1-387 isoform P17706-2): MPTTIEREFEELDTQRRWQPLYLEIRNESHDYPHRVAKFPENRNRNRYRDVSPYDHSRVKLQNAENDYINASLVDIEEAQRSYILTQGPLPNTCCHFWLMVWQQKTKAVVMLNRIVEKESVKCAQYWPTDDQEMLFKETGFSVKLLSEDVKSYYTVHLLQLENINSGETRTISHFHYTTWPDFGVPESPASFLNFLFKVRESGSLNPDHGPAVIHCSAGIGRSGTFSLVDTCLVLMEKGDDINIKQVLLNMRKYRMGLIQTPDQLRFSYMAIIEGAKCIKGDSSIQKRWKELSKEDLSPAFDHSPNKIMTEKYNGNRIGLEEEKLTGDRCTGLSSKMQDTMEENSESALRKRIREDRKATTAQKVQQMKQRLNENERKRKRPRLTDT
Experimental: Example 43: Mobility Shift Assay (MSA) Used to Determine Potency of PTPN2 Inhibitors
Compound activity was determined using in house His tagged PTPN2 (TC45) protein (SEQ ID NO: 1) in an in vitro enzymatic reaction. The enzymatic assay used to determine activity was a mobility shift assay using a LabChip EZ Reader by Caliper Life Sciences. The enzymatic reaction was carried out in assay buffer (50 mM HEPES pH 7.5, 1 mM EGTA, 10 mM EDTA, 0.01% Tween® 20, and 2 mM DTT). The compounds were dispensed on a white 384 well ProxiPlate™ (PerkinElmer Catalog #6008289) plate using the Labcyte Echo at varying concentrations (12 point, 1:3 dilution). The enzyme (at 0.5 nM) was incubated with compound for 10 minutes at room temperature. Thereafter, the substrate (phosphorylated insulin receptor probe sequence: ((OG488)-(NH—CH2—CH2—O—CH2—CH2—O—CH2—CO)-T-R-D-I—(PY)-E-T-D-Y—Y—R—K—K—NH2) (SEQ ID NO: 2) was added at 2 μM to the plates and incubated for another 10 minutes at room temperature. Finally, a quench solution (water and 4-bromo-3-(2-oxo-2-propoxyethoxy)-5-(3-{[1-(phenylmethanesulfonyl)piperidin-4-yl]amino}phenyl)thiophene-2-carboxylic acid) was added to the plates, which were then run on the EZ Reader (excitation 488 nm, emission 530 nm) to measure % conversion (the amount of phosphorylated substrate which was de-phosphorylated by PTPN2). […] The % inhibition was then used to calculate the IC50 values.

[3] = molecular target: T2, His tagged full-length PTPN1 protein (Homo sapiens, UniProt P18031); experiment: Mobility Shift Assay (MSA) for PTPN1 inhibitors; assay type: biochemical; details: enzyme 0.5 nM, substrate 2 μM, 10 minutes preincubation at room temperature
T2 construct: His; made in house
T2 sequence (P18031 1-435): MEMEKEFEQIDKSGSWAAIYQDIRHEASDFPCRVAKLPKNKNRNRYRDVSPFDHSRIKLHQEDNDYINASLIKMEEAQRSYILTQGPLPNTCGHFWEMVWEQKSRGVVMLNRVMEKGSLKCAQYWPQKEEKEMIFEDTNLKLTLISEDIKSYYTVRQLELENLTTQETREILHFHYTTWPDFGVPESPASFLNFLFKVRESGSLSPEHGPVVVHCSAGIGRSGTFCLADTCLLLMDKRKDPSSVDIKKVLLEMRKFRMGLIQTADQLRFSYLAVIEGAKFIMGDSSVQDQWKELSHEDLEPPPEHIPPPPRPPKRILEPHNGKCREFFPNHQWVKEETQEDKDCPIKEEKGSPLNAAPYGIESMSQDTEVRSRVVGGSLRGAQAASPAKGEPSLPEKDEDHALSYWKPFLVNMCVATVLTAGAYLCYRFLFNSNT
Experimental: Example 44: Mobility Shift Assay (MSA) Used to Determine Potency of PTPN1 Inhibitors
Compound activity was determined using in house His tagged full-length PTPN1 protein (SEQ ID NO: 3) in an in vitro enzymatic reaction. The enzymatic assay used to determine activity is a mobility shift assay using a LabChip EZ Reader by Caliper Life Sciences. The enzymatic reaction was carried out in assay buffer (50 mM HEPES pH 7.5, 1 mM EGTA, 10 mM EDTA, 0.010% Tween® 20, and 2 mM DTT). The compounds were dispensed on a white 384 well ProxiPlate™ (PerkinElmer Cat #6008289) plate using a Labcyte Echo® liquid handler at varying concentrations (12 point, 1:3 dilution). The enzyme (at 0.5 nM) was incubated with compound for 10 minutes at room temperature. Thereafter, the substrate (phosphorylated insulin receptor probe sequence: ((OG488)-(NH—CH2—CH2—O—CH2—CH2—O—CH2—CO)-T-R-D-I—(PY)-E-T-D-Y—Y—R—K—K—NH2) (SEQ ID NO: 2) was added at 2 μM to the plates and incubated for another 10 minutes at room temperature. Finally, a quench solution (water and 4-bromo-3-(2-oxo-2-propoxyethoxy)-5-(3-{[1-(phenylmethanesulfonyl)piperidin-4-yl]amino}phenyl)thiophene-2-carboxylic acid) was added to the plates, which were then run on the EZ Reader (excitation 488 nm, emission 530 nm) to measure % conversion (the amount of phosphorylated substrate which was de-phosphorylated by PTPN1). […] The % inhibition was then used to calculate the IC50 values.

[4] = Table 2, 3 hours compound, then mouse IFNγ 100 nM 10 minutes, top dose 50 μM, read-out: B16F10 IFNγ Induced pSTAT1 EC50
[5] = Mus musculus, Table 3, B16F10 cells, IFNγ-induced, thiochromanes (X = S) and chromane comparators (X = O), read-out: pSTAT1 EC50

Compound | EC50 [1, 4] [µM] | EC50 [1, 5] [µM] | IC50 [3] [nM] | Thiochromane x-fold>potency cellular ([1]; Table 3) | Thiochromane x-fold>potency biochemical [2] | IC50 [2] [nM]
CC(C)(C)OC(=O)N1CCC(CN[C@@H]2CSc3cc(O)c(N4CC(=O)NS4(=O)=O)c(F)c3C2)CC1 [Compound 141, tert-butyl 4-({[(3S)-5-fluoro-7-hydroxy-6-(1,1,4-trioxo-1λ^6,2,5-thiadiazolidin-2-yl)-3,4-dihydro-2H-1-benzothiopyran-3-yl]amino}methyl)piperidine-1-carboxylate] | 6.97 | 6.97 | 10 to 100 | >7.2 | 1.0 | 10 to 100
O=C1CN(c2c(O)cc3c(c2F)C[C@H](NCCC2CCCCC2)CS3)S(=O)(=O)N1 [Compound 118, 5-{(3S)-3-[(2-cyclohexylethyl)amino]-5-fluoro-7-hydroxy-3,4-dihydro-2H-1-benzothiopyran-6-yl}-1λ^6,2,5-thiadiazolidine-1,1,3-trione] | 4.22 |  | < 10 |  |  | < 10
O=C1CN(c2c(O)cc3c(c2F)C[C@H](NCC2CC(c4ccccc4)C2)CS3)S(=O)(=O)N1 (stereo partly drawn) [Compound 135, 5-[(3S)-5-fluoro-7-hydroxy-3-{[(3-phenylcyclobutyl)methyl]amino}-3,4-dihydro-2H-1-benzothiopyran-6-yl]-1λ^6,2,5-thiadiazolidine-1,1,3-trione] | 0.688 | 0.688 | 10 to 100 | >72.7 | 1.9 | < 10
O=C1CN(c2c(O)cc3c(c2F)C[C@H](NCCC2(CO)CCC2)CS3)S(=O)(=O)N1 [Compound 104, 5-[(3S)-5-fluoro-7-hydroxy-3-({2-[1-(hydroxymethyl)cyclobutyl]ethyl}amino)-3,4-dihydro-2H-1-benzothiopyran-6-yl]-1λ^6,2,5-thiadiazolidine-1,1,3-trione] | 3.35 |  | 10 to 100 |  |  | < 10
O=C1CN(c2c(O)cc3c(c2F)C[C@H](NCCc2ccccc2)CS3)S(=O)(=O)N1 [Compound 123, 5-{(3S)-5-fluoro-7-hydroxy-3-[(2-phenylethyl)amino]-3,4-dihydro-2H-1-benzothiopyran-6-yl}-1λ^6,2,5-thiadiazolidine-1,1,3-trione] | 2.76 |  | 10 to 100 |  |  | < 10
CC(F)(F)CCCN[C@@H]1CSc2cc(O)c(N3CC(=O)NS3(=O)=O)c(F)c2C1 [Compound 129, 5-{(3S)-3-[(4,4-difluoropentyl)amino]-5-fluoro-7-hydroxy-3,4-dihydro-2H-1-benzothiopyran-6-yl}-1λ^6,2,5-thiadiazolidine-1,1,3-trione] | 0.589 |  | < 10 |  |  | < 10

Second part, led by results:

EC50 [1, 4] [µM] | EC50 [1, 5] [µM] | IC50 [3] [nM] | Compound | Thiochromane x-fold>potency cellular ([1]; Table 3) | Thiochromane x-fold>potency biochemical [2] | IC50 [2] [nM]
0.723 |  | 10 to 100 | O=C1CN(c2c(O)cc3c(c2F)C[C@H](NCCC2CC(F)(F)C2)CS3)S(=O)(=O)N1 [Compound 117, 5-[(3S)-3-{[2-(3,3-difluorocyclobutyl)ethyl]amino}-5-fluoro-7-hydroxy-3,4-dihydro-2H-1-benzothiopyran-6-yl]-1λ^6,2,5-thiadiazolidine-1,1,3-trione] |  |  | < 10
1.58 |  | 10 to 100 | CC1(CCN[C@@H]2CSc3cc(O)c(N4CC(=O)NS4(=O)=O)c(F)c3C2)CC1 [Compound 132, 5-[(3S)-5-fluoro-7-hydroxy-3-{[2-(1-methylcyclopropyl)ethyl]amino}-3,4-dihydro-2H-1-benzothiopyran-6-yl]-1λ^6,2,5-thiadiazolidine-1,1,3-trione] |  |  | < 10
25.5 |  | 10 to 100 | O=C1CN(c2c(O)cc3c(c2F)C[C@H](NCC2CC2(F)F)CS3)S(=O)(=O)N1 (stereo partly drawn) [Compound 126, 5-[(3S)-3-{[(2,2-difluorocyclopropyl)methyl]amino}-5-fluoro-7-hydroxy-3,4-dihydro-2H-1-benzothiopyran-6-yl]-1λ^6,2,5-thiadiazolidine-1,1,3-trione] |  |  | 10 to 100
25.7 | 25.7 | 10 to 100 | O=C1CN(c2c(O)cc3c(c2F)C[C@H](NCC2(CF)CC2)CS3)S(=O)(=O)N1 [Compound 128, 5-[(3S)-5-fluoro-3-({[1-(fluoromethyl)cyclopropyl]methyl}amino)-7-hydroxy-3,4-dihydro-2H-1-benzothiopyran-6-yl]-1λ^6,2,5-thiadiazolidine-1,1,3-trione] | >1.9 | 1.2 | 10 to 100
